Test results: EP2677026A1, “Keratinocyte minimal growth medium and use thereof in an in vitro method for identifying compounds capable of improving skin and hair physiology” (Merz Pharma GmbH & Co. KGaA, priority 2012, dated 2013)
Where two headings read alike, the source gives them in different places.

Tests used:
[1] = tested on: NHEK (normal human epidermal keratinocytes); assay: Minimal growth assay: metabolic activity by resazurin assay of NHEK cultivated in minimal growth medium (MGM) plus test compound; type: cell-based; details: for metabolic activity/cell number compared to the MGM control: highest value of the dose-dependent increase; for dose-depending increase of metabolic activity/cell number compared to the MGM control: 48 h and 72 h, increasing concentrations in MGM; for activity at 100 µM: 100 µm test compound
Procedure: Metabolic activity was measured by a resazurin assay. In this assay, non-fluorescent resazurin is reduced to fluorescent resorufin in viable cells only. The resulting signal is proportional to the number of cells present and, thus, is an indirect measure of cell number. The assay was carried out by diluting a resazurin (Sigma) stock solution (0,1 mg/ml in PBS) in the respective culture medium at a ratio of 1:11. The resazurin conversion to the fluorescent resorufin by metabolically active cells was recorded at 560Ex/590Em nm using a Synergy™ H4 plate reader (BioTek Instruments). Mean values of relative fluorescence/luminescence units (RFU/RLU) and standard deviation of replicates were analysed by Gene5 software. […] Statistical significance was assessed by comparing mean (+/-SD) values with Student's t-test for independent groups. NHEK were seeded at 30.000 cells/cm^2 into 48-well flat bottom tissue culture plates and cultured in normal keratinocyte growth medium ("GM") at 37°C and 5% CO2. After 12 to 15 h (typically over night) the media was exchanged to MGM with different concentrations of test compound. Controls receive MGM without compounds. Test compounds 1 to 4 (1: […] Ca^2+-pantothenate; 4: folic acid) were prepared according to Table 1 to yield respective stock solutions. The stock solutions were further diluted in minimal growth media (MGM) to obtain different test compound concentrations. […] The negative control wells contained media only plus the respective solvent. Table 1. Test compound and control solutions […] The test compounds were dissolved in DMSO, diluted into MGM and added to the cells. 4 to 6 replicates/concentration were tested. […] Metabolic activity after 48 h (see FIG. 4) and 72 h after incubation (see FIG. 5) was determined by the resazurin assay, and proliferation after 48 h and 72 h after incubation was measured using the CyQuant® Direct Cell Proliferation Assay kit (data not shown).

[2] = tested on: NHEK (normal human epidermal keratinocytes); assay: Minimal growth assay: proliferation by DNA amount (CyQuant Direct Cell Proliferation Assay kit) of NHEK in MGM plus test compounds; type: cell-based; details: NHEK in MGM plus single compound or combination; MGM control set 100%
Procedure: Alternatively, cell number was directly assessed by measuring the amount of DNA using the CyQuant® Direct Cell Proliferation Assay kit (Invitrogen). In brief, the two CyQuant® kit solutions were mixed and added to the respective culture medium as described by the supplier. The fluorescence of the DNA intercalating CyQuant® Dye, representing the amount of cells, was recorded at 480Ex/535Em nm using a Synergy™ H4 plate reader (BioTek Instruments). Increase of the number of cells is used as indirect indicator of cell proliferation.
Mean values of relative fluorescence/luminescence units (RFU/RLU) and standard deviation of replicates were analysed by Gene5 software. For a better estimation of test compound's potential metabolic activity and proliferation measured in MGM were set as 100%. Statistical significance was assessed by comparing mean (+/-SD) values with Student's t-test for independent groups.
For measurements of metabolic activity and proliferation, NHEK were seeded at 30,000 cells/cm^2 into a 48-well microtiter flat bottom plate. After over night incubation growth medium 2 was replaced by BM, MGM, and MGM plus test compounds. The test compounds were dissolved in DMSO, diluted into MGM and added to the cells. 4 to 6 replicates/concentration were tested. […]

[3] = after 48 h, MGM control set 100%
[4] = after 72 h, MGM control set 100%
[5] = Homo sapiens, NHEK, after 72 h, MGM control set 100%, read-out: metabolic activity compared to the MGM control

N[C@@H](CSSC[C@H](N)C(=O)O)C(=O)O [L-cystine]
metabolic activity/cell number compared to the MGM control [1, 3]: up to 265%
metabolic activity/cell number compared to the MGM control [1, 4]: up to 419%
proliferation (DNA amount) compared to the MGM control [2]: 282%

Cc1ncc(C[n+]2csc(CCO)c2C)c(N)n1 [Thiamin, thiamine]
metabolic activity/cell number compared to the MGM control [1, 3]: up to 138%
metabolic activity/cell number compared to the MGM control [1, 4]: up to 163%

CC(C)(CO)[C@@H](O)C(=O)NCCC(=O)O [pantothenate, Ca^2+-pantothenate]
dose-depending increase of metabolic activity/cell number compared to the MGM control [1]: did not show a dose-depending increase
activity at 5 µM ([1]; Homo sapiens, NHEK, 5 µm test compound, after 48 h, MGM control set 100%, read-out: metabolic activity compared to the MGM control): 111%
activity at 100 µM [1, 5]: 110%

Nc1nc2ncc(CNc3ccc(C(=O)N[C@@H](CCC(=O)O)C(=O)O)cc3)nc2c(=O)[nH]1 [folic acid]
dose-depending increase of metabolic activity/cell number compared to the MGM control [1]: did not demonstrate a dose-depending increase
activity at 100 µM ([1]; Homo sapiens, NHEK, after 48 h, MGM control set 100%, read-out: metabolic activity compared to the MGM control): 113%
activity at 100 µM [1, 5]: 118%
